Data taken from ChEMBL document CHEMBL1287680, “C-11 diamino cryptolepine derivatives NSC748392, NSC748393, and NSC748394: anticancer profile and G-quadruplex stabilization” (Bioorg Med Chem Lett, 2010).

What was measured:
HCT-116 = assay: cells; conditions: Homo sapiens
Description: Anticancer activity against human HCT116 cells

MDA-MB-231 = assay: cells; conditions: Homo sapiens
Description: Anticancer activity against human MDA-MB-231 cells

HCT-15 = assay: cells; conditions: Homo sapiens
Description: Anticancer activity against human HCT15 cells

BT-549 = assay: cells; conditions: Homo sapiens
Description: Anticancer activity against human BT549 cells

HL-60(TB) = assay: cells; conditions: Homo sapiens
Description: Anticancer activity against human HL-60(TB) cells

RXF 393 = assay: cells; conditions: Homo sapiens
Description: Anticancer activity against human RXF393 cells

ACHN = assay: cells; conditions: Homo sapiens
Description: Anticancer activity against human ACHN cells

TK-10 = assay: cells; conditions: Homo sapiens
Description: Anticancer activity against human TK10 cells

SK-OV-3 = assay: cells; conditions: Homo sapiens
Description: Anticancer activity against human SKOV3 cells

HOP-92 = assay: cells; conditions: Homo sapiens
Description: Anticancer activity against human HOP92 cells

HCC 2998 = assay: cells; conditions: Homo sapiens
Description: Anticancer activity against human HCC2998 cells

786-0 = assay: cells; conditions: Homo sapiens
Description: Anticancer activity against human 786-0 cells

SNB-75 = assay: cells; conditions: Homo sapiens
Description: Anticancer activity against human SNB75 cells

MOLT-4 = assay: cells; conditions: Homo sapiens
Description: Anticancer activity against human MOLT4 cells

MDA-MB-468 = assay: cells; conditions: Homo sapiens
Description: Anticancer activity against human MDA-MB-468 cells

UACC-62 = assay: cells; conditions: Homo sapiens
Description: Anticancer activity against human UACC62 cells

CAKI-1 = assay: cells; conditions: Homo sapiens
Description: Anticancer activity against human Caki1 cells

NCI/ADR-RES = assay: cells; conditions: Homo sapiens
Description: Anticancer activity against human NCI/ADR-RES cells

A549 = assay: cells; conditions: Homo sapiens
Description: Anticancer activity against human A549 cells

in vivo = conditions: mouse, cancer cell lines
Description: Toxicity in cancer cells containing hollow fiber implanted mouse

U-251 = assay: cells; conditions: Homo sapiens
Description: Anticancer activity against human U251 cells

SF-268 = assay: cells; conditions: Homo sapiens
Description: Anticancer activity against human SF268 cells

SF-295 = assay: cells; conditions: Homo sapiens
Description: Anticancer activity against human SF295 cells

Vero = assay: cells; conditions: Chlorocebus sabaeus, 48 h
Description: Cytotoxicity against african green monkey Vero cells after 48 hrs by MTT assay

HT-29 = assay: cells; conditions: Homo sapiens
Description: Anticancer activity against human HT-29 cells

SNB-19 = assay: cells; conditions: Homo sapiens
Description: Anticancer activity against human SNB19 cells

NCI-H226 = assay: cells; conditions: Homo sapiens
Description: Anticancer activity against human NCI-H226 cells

OVCAR-5 = assay: cells; conditions: Homo sapiens
Description: Anticancer activity against human OVCAR5 cells

cells = conditions: Homo sapiens, Hs-578T
Description: Anticancer activity against human Hs 578T cells

CCRF-CEM = assay: cells; conditions: Homo sapiens
Description: Anticancer activity against human CCRF-CEM cells

SK-MEL-28 = assay: cells; conditions: Homo sapiens
Description: Anticancer activity against human SK-MEL-28 cells

UACC-257 = assay: cells; conditions: Homo sapiens
Description: Anticancer activity against human UACC257 cells

C[n+]1c2ccccc2c(Nc2ccc(N3CCCCC3)cc2)c2[nH]c3ccccc3c21.[Cl-]
GI50 (HCT-116; HCT-116, read-out: pGI50 (converted)): 132 nM | CC50 (HCT-116; HCT-116, read-out: pLC50 (converted)): 100000 nM | TGI (HCT-116; HCT-116, read-out: pTGI): 363 nM | GI50 (MDA-MB-231; MDA-MB-231, read-out: pGI50 (converted)): 490 nM | CC50 (MDA-MB-231; MDA-MB-231, read-out: pLC50 (converted)): 6030 nM | TGI (MDA-MB-231; MDA-MB-231, read-out: pTGI): 2090 nM | GI50 (HCT-15; HCT-15, read-out: pGI50 (converted)): 170 nM | CC50 (HCT-15; HCT-15, read-out: pLC50 (converted)): 912 nM | TGI (HCT-15; HCT-15, read-out: pTGI): 398 nM | GI50 (BT-549; BT-549, read-out: pGI50 (converted)): 1290 nM | CC50 (BT-549; BT-549, read-out: pLC50 (converted)): 5250 nM | TGI (BT-549; BT-549, read-out: pTGI): 2630 nM | GI50 (HL-60(TB); HL-60, read-out: pGI50 (converted)): 617 nM | CC50 (HL-60(TB); HL-60, read-out: pLC50 (converted)): > 100000 nM | GI50 (RXF 393; RXF 393, read-out: pGI50 (converted)): 174 nM | CC50 (RXF 393; RXF 393, read-out: pLC50 (converted)): 692 nM | TGI (RXF 393; RXF 393, read-out: pTGI): 347 nM | GI50 (ACHN; read-out: pGI50 (converted)): 288 nM | CC50 (ACHN; read-out: pLC50 (converted)): 3890 nM | TGI (ACHN; read-out: pTGI): 1450 nM | GI50 (TK-10; TK-10, read-out: pGI50 (converted)): 1000 nM | CC50 (TK-10; TK-10, read-out: pLC50 (converted)): 5620 nM | TGI (TK-10; TK-10, read-out: pTGI): 2400 nM | GI50 (SK-OV-3; SK-OV-3, read-out: pGI50 (converted)): 513 nM | CC50 (SK-OV-3; SK-OV-3, read-out: pLC50 (converted)): 4270 nM | TGI (SK-OV-3; SK-OV-3, read-out: pTGI): 1860 nM | GI50 (HOP-92; HOP-92, read-out: pGI50 (converted)): 263 nM | CC50 (HOP-92; HOP-92, read-out: pLC50 (converted)): 5130 nM | TGI (HOP-92; HOP-92, read-out: pTGI): 1200 nM | GI50 (HCC 2998; HCC 2998, read-out: pGI50 (converted)): 162 nM | CC50 (HCC 2998; HCC 2998, read-out: pLC50 (converted)): 813 nM | TGI (HCC 2998; HCC 2998, read-out: pTGI): 363 nM | GI50 (786-0; 786-0, read-out: pGI50 (converted)): 457 nM | CC50 (786-0; 786-0, read-out: pLC50 (converted)): 5500 nM | TGI (786-0; 786-0, read-out: pTGI): 1700 nM | GI50 (SNB-75; SNB-75, read-out: pGI50 (converted)): 692 nM | CC50 (SNB-75; SNB-75, read-out: pLC50 (converted)): 4470 nM | TGI (SNB-75; SNB-75, read-out: pTGI): 2000 nM | GI50 (MOLT-4; MOLT-4, read-out: pGI50 (converted)): 70.8 nM | CC50 (MOLT-4; MOLT-4, read-out: pLC50 (converted)): > 100000 nM | TGI (MOLT-4; MOLT-4, read-out: pTGI): 8710 nM | GI50 (MDA-MB-468; MDA-MB-468, read-out: pGI50 (converted)): 135 nM | CC50 (MDA-MB-468; MDA-MB-468, read-out: pLC50 (converted)): 891 nM | TGI (MDA-MB-468; MDA-MB-468, read-out: pTGI): 347 nM | GI50 (UACC-62; UACC-62, read-out: pGI50 (converted)): 427 nM | TGI (UACC-62; UACC-62, read-out: pTGI): 1910 nM | GI50 (CAKI-1; CAKI-1, read-out: pGI50 (converted)): 234 nM | CC50 (CAKI-1; CAKI-1, read-out: pLC50 (converted)): 3160 nM | TGI (CAKI-1; CAKI-1, read-out: pTGI): 794 nM | GI50 (NCI/ADR-RES; read-out: pGI50 (converted)): 617 nM | TGI (NCI/ADR-RES; read-out: pTGI): 2450 nM | GI50 (A549; A549, read-out: pGI50 (converted)): 162 nM | CC50 (A549; A549, read-out: pLC50 (converted)): > 100000 nM | TGI (A549; A549, read-out: pTGI): 589 nM | MTD (in vivo): 160 mg/kg | GI50 (U-251; U-251, read-out: pGI50 (converted)): 288 nM | CC50 (U-251; U-251, read-out: pLC50 (converted)): 3630 nM | TGI (U-251; U-251, read-out: pTGI): 1230 nM | GI50 (SF-268; SF-268, read-out: pGI50 (converted)): 676 nM | CC50 (SF-268; SF-268, read-out: pLC50 (converted)): 6030 nM | TGI (SF-268; SF-268, read-out: pTGI): 2190 nM | GI50 (SF-295; SF-295, read-out: pGI50 (converted)): 398 nM | CC50 (SF-295; SF-295, read-out: pLC50 (converted)): 4370 nM | TGI (SF-295; SF-295, read-out: pTGI): 1580 nM | IC50 (Vero): 4830 nM | GI50 (HT-29; HT-29, read-out: pGI50 (converted)): 178 nM | CC50 (HT-29; HT-29, read-out: pLC50 (converted)): 2140 nM | TGI (HT-29; HT-29, read-out: pTGI): 550 nM | GI50 (SNB-19; SNB-19, read-out: pGI50 (converted)): 427 nM | CC50 (SNB-19; SNB-19, read-out: pLC50 (converted)): 4370 nM | TGI (SNB-19; SNB-19, read-out: pTGI): 1780 nM | GI50 (NCI-H226; NCI-H226, read-out: pGI50 (converted)): 269 nM | TGI (NCI-H226; NCI-H226, read-out: pTGI): 1860 nM | GI50 (OVCAR-5; OVCAR-5, read-out: pGI50 (converted)): 1070 nM | CC50 (OVCAR-5; OVCAR-5, read-out: pLC50 (converted)): 5500 nM | TGI (OVCAR-5; OVCAR-5, read-out: pTGI): 2400 nM | GI50 (cells; read-out: pGI50 (converted)): 275 nM | TGI (cells; read-out: pTGI): 1000 nM | GI50 (CCRF-CEM; read-out: pGI50 (converted)): 162 nM | CC50 (CCRF-CEM; read-out: pLC50 (converted)): 2000 nM | TGI (CCRF-CEM; read-out: pTGI): 427 nM | GI50 (SK-MEL-28; SK-MEL-28, read-out: pGI50 (converted)): 372 nM | CC50 (SK-MEL-28; SK-MEL-28, read-out: pLC50 (converted)): 3470 nM | TGI (SK-MEL-28; SK-MEL-28, read-out: pTGI): 1150 nM | GI50 (UACC-257; UACC-257, read-out: pGI50 (converted)): 1230 nM | TGI (UACC-257; UACC-257, read-out: pTGI): 2690 nM
